Results published in patent US20160046618A1, “Cyclopropyl Fused Thiazin-2-Amine Compounds as Beta-Secretase Inhibitors and Methods of Use” (AMGEN INC., priority 2014, published 2016).
Where two headings read alike, the source gives them in different places.

Key:
human recombinant BACE1 = human recombinant BACE1 (Homo sapiens (Human), UniProt P56817); experiment: In vitro enzymatic BACE1 FRET assay; type: biochemical; details: read-out: IC50 IP (μM) BACE1 enzyme
Description: (§1) These recombinant proteins were further purified using Ni-NTA affinity chromatography (Qiagen). […] This assay is effectively started by the addition of FRET substrate (50 nM) and the combination is incubated for one hour. The FRET assay is terminated by addition of Tris buffer, which raises the pH to neutrality, and the fluorescence is determined. The FRET substrate is a peptide with commercially available fluorophore and quencher, on opposite sides of the BACE cleavage site. Proteolytic cleavage of the FRET substrate releases quenching of fluorescence (excitation 488 nm and emission 590 nm).

human recombinant BACE2 = human recombinant BACE2 (Homo sapiens (Human), UniProt Q9Y5Z0); experiment: In vitro enzymatic BACE2 FRET assay; type: biochemical; details: read-out: IC50 IP (μM) BACE2 enzyme
Sequence of human recombinant BACE2 (Q9Y5Z0 63-518): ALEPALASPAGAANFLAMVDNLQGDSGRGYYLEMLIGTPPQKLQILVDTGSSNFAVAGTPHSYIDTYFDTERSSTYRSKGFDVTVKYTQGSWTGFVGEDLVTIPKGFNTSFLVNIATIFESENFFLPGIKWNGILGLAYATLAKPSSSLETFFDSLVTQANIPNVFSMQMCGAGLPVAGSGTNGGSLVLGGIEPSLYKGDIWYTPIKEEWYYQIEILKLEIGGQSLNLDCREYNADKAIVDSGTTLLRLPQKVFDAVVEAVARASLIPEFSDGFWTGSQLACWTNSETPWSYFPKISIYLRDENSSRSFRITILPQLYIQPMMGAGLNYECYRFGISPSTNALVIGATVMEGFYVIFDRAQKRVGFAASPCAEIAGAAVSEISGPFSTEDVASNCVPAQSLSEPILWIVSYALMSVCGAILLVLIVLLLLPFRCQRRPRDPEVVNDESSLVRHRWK
Description: as §1

[1] = test system: Aβ40 in conditioned medium of cells stably expressing Amyloid Precursor Protein (APP); experiment: In vitro BACE-1 cell-based assay (Aβ40 sandwich ELISA); details: read-out: IC50 IP (μM) BACE1 cell
Description: In Vitro BACE-1 Cell-Based Assay
The cell-based assay measures inhibition or reduction of Aβ40 in conditioned medium of test compound treated cells expressing amyloid precursor protein. Cells stably expressing Amyloid Precursor Protein (APP) were plated at a density of 40K cells/well in 96 well plates (Costar). The cells were cultivated for 24 hours at 37° C. and 5% CO2 in DMEM supplemented with 10% FBS. The test compounds were then added to cells in 10-point dose response concentrations with the starting concentration being either 100 μM or 10 μM. The compounds were diluted from stock solutions in DMSO and the final DMSO concentration of the test compounds on cells was 0.1%. After 24 h of incubation with the test compounds the supernatant conditioned media was collected and the Aβ40 levels were determined using a sandwich ELISA. The IC50 of the compound was calculated from the percent of control or percent inhibition of Aβ40 as a function of the concentration of the test compound.
The sandwich ELISA to detect Aβ40 was performed in 96 well microtiter plates, which were pre-treated with goat anti-rabbit IgG (Pierce). The capture and detecting antibody pair that were used to detect Aβ40 from cell supernatants were affinity purified pAb40 (Biosource) and biotinylated 6E10 (Signet Labs Inc.), respectively. The optimal concentration for the pAb40 antibody was 3 μg/ml in Superblock/TBS (Pierce) that was supplemented with 0.05% Tween 20 (Sigma). […] Cellular supernatants were incubated with the capture antibody for 3 h at 4° C., followed by 3 wash steps in TBS-tween (0.05%). The detecting antibody incubation was for 2 h at 4° C., again followed by the wash steps as described previously. The final readout of the ELISA is Time-Resolved Fluorescence (counts per minute) using Delfia reagents Streptavidin-Europium and Enhancement solutions (Perkin Elmer) and the Victor 2 multilabel counter (Perkin Elmer).

Recombinant Cat D = Recombinant Cat D (Homo sapiens (Human), UniProt P07339); experiment: In vitro enzymatic Cathepsin D (Cat D) FRET assay; type: biochemical; details: read-out: IC50 IP (μM) CatD
Sequence of Recombinant Cat D (P07339 65-412): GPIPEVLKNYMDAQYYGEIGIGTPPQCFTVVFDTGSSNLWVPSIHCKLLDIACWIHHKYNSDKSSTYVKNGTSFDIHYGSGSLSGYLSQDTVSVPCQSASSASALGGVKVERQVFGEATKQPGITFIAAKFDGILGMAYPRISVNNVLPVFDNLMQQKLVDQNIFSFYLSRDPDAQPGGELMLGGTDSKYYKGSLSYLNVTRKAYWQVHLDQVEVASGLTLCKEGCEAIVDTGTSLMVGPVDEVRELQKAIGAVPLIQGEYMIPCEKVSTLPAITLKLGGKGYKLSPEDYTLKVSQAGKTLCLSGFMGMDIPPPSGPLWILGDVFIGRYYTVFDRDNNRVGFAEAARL
Description: In Vitro Enzymatic Cathepsin D (Cat D) FRET (Fluorescence Resonance Energy Transfer) Assay
Recombinant Cat D was expressed in CHO cells. The assay buffer for CathepsinD is 0.05 M citrate pH 3.5, 10% DMSO final, 5 mM CHAPS. […] The assays are effectively started by the addition of different FRET substrates (20 nM for Cat D) and the combination is incubated for one hour. The FRET assay is terminated with by addition of Tris buffer, which raises the pH to neutrality, and the fluorescence is determined. The FRET substrate is a peptide with commercially available fluorophore and quencher, on opposite sides of the BACE cleavage site. The Cat D substrate peptide sequence is based on sequence #1 of Table 1 from Gulnik et al. FEBS Letters v413 p 379-384 1997. Proteolytic cleavage of the FRET substrate releases quenching of fluorescence (Cat D excitation 500 nm and emission 580 nm).

Sequence of human recombinant BACE1 (P56817 46-501): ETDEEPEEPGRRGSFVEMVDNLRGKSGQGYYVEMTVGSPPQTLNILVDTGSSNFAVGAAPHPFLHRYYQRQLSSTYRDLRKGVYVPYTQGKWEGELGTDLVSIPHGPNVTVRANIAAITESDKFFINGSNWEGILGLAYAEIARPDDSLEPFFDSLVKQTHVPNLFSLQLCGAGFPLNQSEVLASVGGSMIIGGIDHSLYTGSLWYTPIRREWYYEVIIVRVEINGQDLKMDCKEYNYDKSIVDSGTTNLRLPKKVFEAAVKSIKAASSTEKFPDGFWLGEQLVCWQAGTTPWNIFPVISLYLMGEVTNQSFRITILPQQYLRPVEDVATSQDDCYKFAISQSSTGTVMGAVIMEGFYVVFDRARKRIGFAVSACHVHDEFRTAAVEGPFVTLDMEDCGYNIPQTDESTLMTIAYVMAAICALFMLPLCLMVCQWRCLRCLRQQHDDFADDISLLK

Row | IC50 (human recombinant BACE1; BACE1 FRET enzyme assay) [µM] | IC50 (human recombinant BACE2; BACE2 FRET enzyme assay) [µM] | IC50 ([1]; BACE1 cell-based assay) [µM] | IC50 (Recombinant Cat D; Cathepsin D FRET enzyme assay) [µM] | IC50 (human recombinant BACE1) [µM] | IC50 (human recombinant BACE2) [µM] | IC50 [1] [µM] | IC50 (Recombinant Cat D) [µM] | Structure (SMILES)
1 | 0.0052 | 0.00373 | 0.0102 | 414 |  |  |  |  | C[C@]1(c2cc(Nc3ncnc4cc(Cl)cnc34)cc(F)c2F)N=C(N)S[C@@]2(CO)C[C@H]21 [Example 92, ((1S,5S,6S)-3-amino-5-(5-((7-chloropyrido[3,2-d]pyrimidin-4-yl)amino)-2,3-difluorophenyl)-5-methyl-2-thia-4-azabicyclo[4.1.0]hept-3-en-1-yl)methanol]
2 |  |  |  |  | 0.000774 | 0.00425 | 0.0013 | 462 | C#CCOc1cnc2c(Nc3cnc(F)c([C@@]4(C)N=C(N)S[C@@]5([C@H](O)C(F)(F)F)C[C@H]54)c3)nccc2n1 [Example 659, (1R)-1-((1S,5S,6S)-3-amino-5-(2-fluoro-5-((2-(2-propyn-1-yloxy)pyrido[3,4-b]pyrazin-5-yl)amino)-3-pyridinyl)-5-methyl-2-thia-4-azabicyclo[4.1.0]hept-3-en-1-yl)-2,2,2-trifluoroethanol]
3 |  |  |  |  | 0.00272 | 0.263 | 0.0883 | > 400 | C[C@]1(c2cc(NC(=O)c3ccc(OCC(F)(F)F)cn3)cc(F)c2F)N=C(N)S[C@@]2(C(F)F)C[C@@H]12 [Example 695, N-(3-((1S,5S,6S)-3-amino-1-(difluoromethyl)-5-methyl-2-thia-4-azabicyclo[4.1.0]hept-3-en-5-yl)-4,5-difluorophenyl)-5-(2,2,2-trifluoroethoxy)-2-pyridinecarboxamide]
4 |  |  |  |  | 0.000821 | 0.0412 | 0.00175 | 34.2 | C#CCOc1cnc2c(Nc3ccc(F)c([C@@]4(C)N=C(N)S[C@@]5(C(F)F)C[C@@H]45)c3)ncnc2c1 [Example 819, N-(3-((1S,5S,6S)-3-amino-1-(difluoromethyl)-5-methyl-2-thia-4-azabicyclo[4.1.0]hept-3-en-5-yl)-4-fluorophenyl)-7-(2-propyn-1-yloxy)pyrido[3,2-d]pyrimidin-4-amine]
5 |  |  |  |  | 0.0412 | 0.978 | 1.76 | 1650 | COC[C@]12C[C@H]1[C@@](C)(c1cc(Nc3nccc4cc(OCc5ncc(Cl)s5)cnc34)cc(F)c1F)N=C(N)S2 [Example 735, N-(3-((1S,5S,6S)-3-amino-1-(methoxymethyl)-5-methyl-2-thia-4-azabicyclo[4.1.0]hept-3-en-5-yl)-4,5-difluorophenyl)-3-((5-chloro-1,3-thiazol-2-yl)methoxy)-1,7-naphthyridin-8-amine]
6 | 0.0137 | 0.00616 | 0.0208 | 738 |  |  |  |  | NC1=N[C@](CF)(c2cc(Nc3nncc4cc(Br)cnc34)ccc2F)C2C[C@@H]2S1 (stereo in doubt) [Example 67, N-(3-((1S,5S,6S)-3-amino-5-(fluoromethyl)-2-thia-4-azabicyclo[4.1.0]hept-3-en-5-yl)-4-fluorophenyl)-3-bromopyrido[2,3-d]pyridazin-8-amine]
7 |  |  |  |  | 0.0282 | 0.385 | 0.0457 | 856 | COC[C@]12C[C@H]1[C@@](C)(c1cc(Nc3nccc4cc(OCC#N)cnc34)cc(F)c1F)N=C(N)S2 [Example 729, ((8-((3-((1S,5S,6S)-3-amino-1-(methoxymethyl)-5-methyl-2-thia-4-azabicyclo[4.1.0]hept-3-en-5-yl)-4,5-difluorophenyl)amino)-1,7-naphthyridin-3-yl)oxy)acetonitrile]
8 |  |  |  |  | 0.00357 | 0.158 | 0.0652 | > 400 | C#C[C@H](C)Oc1cnc(C(=O)Nc2cc(F)c(F)c([C@@]3(C)N=C(N)S[C@@]4(C(F)F)C[C@@H]34)c2)c(C)n1 [Example 617, N-(3-((1S,5S,6S)-3-amino-1-(difluoromethyl)-5-methyl-2-thia-4-azabicyclo[4.1.0]hept-3-en-5-yl)-4,5-difluorophenyl)-3-methyl-5-(((1S)-1-methyl-2-propyn-1-yl)oxy)-2-pyrazinecarboxamide]
9 |  |  |  |  | 0.00305 | 0.0249 | 0.00392 | > 400 | COC[C@]12C[C@H]1[C@@](C)(c1cc(NC(=O)c3ncc(OCc4ncco4)nc3C)ccc1F)N=C(N)S2 [Example 835, N-(3-((1S,5S,6S)-3-amino-1-(methoxymethyl)-5-methyl-2-thia-4-azabicyclo[4.1.0]hept-3-en-5-yl)-4-fluorophenyl)-3-methyl-5-(1,3-oxazol-2-ylmethoxy)-2-pyrazinecarboxamide]
10 | 0.0133 | 0.0836 | 0.00781 | 1230 |  |  |  |  | COC[C@]12C[C@H]1[C@@](C)(c1cc(Nc3ncnc4cc(OC)cnc34)cc(F)c1F)N=C(N)S2 [Example 65, N-(3-((1S,5S,6S)-3-amino-1-(methoxymethyl)-5-methyl-2-thia-4-azabicyclo[4.1.0]hept-3-en-5-yl)-4,5-difluorophenyl)-7-methoxypyrido[3,2-d]pyrimidin-4-amine]
11 |  |  |  |  | 0.000867 | 0.127 | 0.165 | 209 | C[C@H](Oc1cnc2c(Nc3cc(F)c(F)c([C@@]4(C)N=C(N)S[C@@]5(C#N)C[C@H]54)c3)nccc2n1)c1ncco1 [Example 939, (1S,5S,6S)-3-amino-5-(2,3-difluoro-5-((2-((1S)-1-(1,3-oxazol-2-yl)ethoxy)pyrido[3,4-b]pyrazin-5-yl)amino)phenyl)-5-methyl-2-thia-4-azabicyclo[4.1.0]hept-3-ene-1-carbonitrile]
12 |  |  |  |  | 0.00311 | < 0.00203 | 0.014 | 753 | CC(C)(O)[C@@]12SC(N)=N[C@](C)(c3cc(NC(=O)c4ccc(Cl)cn4)ccc3F)[C@@H]1C2(F)F [Example 711, N-(3-((1S,5S,6R)-3-amino-7,7-difluoro-1-(1-hydroxy-1-methylethyl)-5-methyl-2-thia-4-azabicyclo[4.1.0]hept-3-en-5-yl)-4-fluorophenyl)-5-chloro-2-pyridinecarboxamide]
13 |  |  |  |  | 0.000313 | 0.00575 | 0.000583 | 7.95 | C#CCOc1cnc(C(=O)Nc2ccc(F)c([C@@]3(CF)N=C(N)S[C@@]4(/C=C/C(=O)N(C)C)C[C@H]43)c2)cn1 [Example 774, N-(3-((1R,5S,6S)-3-amino-1-((1E)-3-(dimethylamino)-3-oxo-1-propen-1-yl)-5-(fluoromethyl)-2-thia-4-azabicyclo[4.1.0]hept-3-en-5-yl)-4-fluorophenyl)-5-(2-propyn-1-yloxy)-2-pyrazinecarboxamide]
14 |  |  |  |  | 0.0324 | 0.0972 | 0.195 | 559 | COc1cnc2c(Nc3cc(F)c(F)c([C@@]4(C)N=C(N)S[C@H]5C[C@H]54)c3)nccc2n1 [Example 900, N-(3-((1S,5S,6S)-3-amino-5-methyl-2-thia-4-azabicyclo[4.1.0]hept-3-en-5-yl)-4,5-difluorophenyl)-2-methoxypyrido[3,4-b]pyrazin-5-amine]
15 |  |  |  |  | 0.00421 | 0.158 | 0.0169 | 1460 | COC[C@]12C[C@H]1[C@@](C)(c1cc(NC(=O)c3cnc(OCC(C)(F)F)cn3)cc(F)c1F)N=C(N)S2 [Example 739, N-(3-((1S,5S,6S)-3-amino-1-(methoxymethyl)-5-methyl-2-thia-4-azabicyclo[4.1.0]hept-3-en-5-yl)-4,5-difluorophenyl)-5-(2,2-difluoropropoxy)-2-pyrazinecarboxamide]
